Assays:
HA-F688A CaSR mutant = target: T1, HA-F688A CaSR mutant (Rattus norvegicus, UniProt P48442, F688A); test: IP-One assay, HEK293T transiently transfected; format: cell-based
T1 construct: mGluR5 signal peptide (N); expressed in transfected cells; host or cells: HEK293T
T1 sequence (P48442 20-1079 F688A): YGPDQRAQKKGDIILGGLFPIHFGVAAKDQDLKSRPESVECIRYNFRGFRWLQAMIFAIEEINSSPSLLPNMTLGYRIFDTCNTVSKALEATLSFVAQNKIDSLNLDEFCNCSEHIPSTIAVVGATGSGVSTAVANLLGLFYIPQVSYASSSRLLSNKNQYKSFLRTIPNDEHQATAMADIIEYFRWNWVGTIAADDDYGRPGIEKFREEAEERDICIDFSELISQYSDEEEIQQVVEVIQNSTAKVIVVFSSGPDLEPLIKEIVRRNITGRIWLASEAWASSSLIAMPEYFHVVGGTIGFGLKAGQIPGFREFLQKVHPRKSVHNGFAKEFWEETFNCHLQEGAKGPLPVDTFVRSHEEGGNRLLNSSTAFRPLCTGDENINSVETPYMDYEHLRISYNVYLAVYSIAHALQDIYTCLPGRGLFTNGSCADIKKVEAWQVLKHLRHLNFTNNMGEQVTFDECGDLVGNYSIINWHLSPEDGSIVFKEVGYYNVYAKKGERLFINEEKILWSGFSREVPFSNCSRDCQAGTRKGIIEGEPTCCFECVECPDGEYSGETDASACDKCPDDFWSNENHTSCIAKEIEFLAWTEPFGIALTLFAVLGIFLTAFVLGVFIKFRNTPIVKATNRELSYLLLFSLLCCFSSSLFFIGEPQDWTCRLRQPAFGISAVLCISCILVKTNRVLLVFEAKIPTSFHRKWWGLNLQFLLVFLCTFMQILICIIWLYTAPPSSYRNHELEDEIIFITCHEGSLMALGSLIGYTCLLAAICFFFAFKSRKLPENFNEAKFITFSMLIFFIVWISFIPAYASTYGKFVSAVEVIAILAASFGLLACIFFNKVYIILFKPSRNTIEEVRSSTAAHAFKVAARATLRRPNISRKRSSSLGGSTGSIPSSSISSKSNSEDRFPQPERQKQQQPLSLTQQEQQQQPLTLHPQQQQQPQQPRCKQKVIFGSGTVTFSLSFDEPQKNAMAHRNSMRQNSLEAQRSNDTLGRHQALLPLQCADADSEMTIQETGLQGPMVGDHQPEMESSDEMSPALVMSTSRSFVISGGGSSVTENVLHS

[1] = target: T2, HA-F801A CaSR mutant (ICL3 mutant) (Rattus norvegicus, UniProt P48442, F801A); test: IP-One assay, HEK293T transiently transfected; format: cell-based
T2 construct: mGluR5 signal peptide (N); expressed in transfected cells; host or cells: HEK293T
T2 sequence (P48442 20-1079 F801A): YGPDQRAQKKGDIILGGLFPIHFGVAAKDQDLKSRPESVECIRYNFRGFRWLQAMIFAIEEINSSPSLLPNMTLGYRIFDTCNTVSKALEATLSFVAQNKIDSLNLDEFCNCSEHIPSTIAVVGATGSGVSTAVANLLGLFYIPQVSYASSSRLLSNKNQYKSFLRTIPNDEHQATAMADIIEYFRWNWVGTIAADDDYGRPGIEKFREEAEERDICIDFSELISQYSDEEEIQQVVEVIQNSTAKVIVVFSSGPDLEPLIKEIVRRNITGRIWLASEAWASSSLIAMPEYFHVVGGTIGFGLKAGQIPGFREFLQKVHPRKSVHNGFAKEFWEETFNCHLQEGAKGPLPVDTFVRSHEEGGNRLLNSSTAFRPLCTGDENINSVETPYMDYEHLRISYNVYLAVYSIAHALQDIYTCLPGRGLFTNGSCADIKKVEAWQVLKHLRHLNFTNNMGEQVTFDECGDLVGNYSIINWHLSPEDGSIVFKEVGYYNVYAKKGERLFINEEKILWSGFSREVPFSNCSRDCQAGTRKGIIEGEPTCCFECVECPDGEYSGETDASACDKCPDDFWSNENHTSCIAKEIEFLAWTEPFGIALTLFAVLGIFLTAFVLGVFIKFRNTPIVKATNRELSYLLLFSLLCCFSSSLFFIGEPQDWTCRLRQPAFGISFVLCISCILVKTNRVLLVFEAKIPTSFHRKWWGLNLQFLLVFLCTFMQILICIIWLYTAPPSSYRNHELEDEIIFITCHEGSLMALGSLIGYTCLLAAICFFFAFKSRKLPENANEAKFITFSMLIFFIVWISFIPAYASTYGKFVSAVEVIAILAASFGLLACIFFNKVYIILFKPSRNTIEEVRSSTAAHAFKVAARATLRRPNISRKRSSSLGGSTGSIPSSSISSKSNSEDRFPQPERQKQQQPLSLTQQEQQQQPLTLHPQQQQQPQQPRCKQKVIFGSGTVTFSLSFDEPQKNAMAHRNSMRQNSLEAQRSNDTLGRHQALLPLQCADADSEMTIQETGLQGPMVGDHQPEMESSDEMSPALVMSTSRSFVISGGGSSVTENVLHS

[Ca+2] [Ca^2+]
EC50 (HA-F688A CaSR mutant; Ca^2+ alone): 6.11 mM
pEC50 ± S.E.M. (HA-F688A CaSR mutant; Ca^2+ alone): 2.21 ± 0.01
Max ± S.E.M. (HA-F688A CaSR mutant; Ca^2+ alone, normalized to maximum response of WT CaSR): 86 ± 3.1%
EC50 (HA-F688A CaSR mutant; Ca^2+ with 1 μM NPS R-568): 2.86 mM
pEC50 ± S.E.M. (HA-F688A CaSR mutant; Ca^2+ with 1 μM NPS R-568): 2.54 ± 0.02
Max ± S.E.M. (HA-F688A CaSR mutant; Ca^2+ with 1 μM NPS R-568, normalized to maximum response with Ca^2+ alone for the construct): 110 ± 9%
EC50 (HA-F688A CaSR mutant; Ca^2+ with 5 μM NPS 2143): 8.31 mM
pEC50 ± S.E.M. (HA-F688A CaSR mutant; Ca^2+ with 5 μM NPS 2143): 2.08 ± 0.01
Max ± S.E.M. (HA-F688A CaSR mutant; Ca^2+ with 5 μM NPS 2143, normalized to maximum response with Ca^2+ alone for the construct): 79 ± 6.9%
EC50 ([1]; Ca^2+ alone): > 30 mM
Max ± S.E.M. ([1]; normalized to maximum response of WT CaSR): 5.8 ± 0.4%
